Series [1] concerns mutant HIV-1 with I84V/L90M mutations. Nature of the series: microbe, parasite or virus in culture. Type of series: cell-based.
Another series relates to WT HIV-1. Nature of the series: microbe, parasite or virus in culture. As to conditions: Human immunodeficiency virus 1, read-out: Cell-based assay (MT-4) EC50/nM WT.
In series [2] the test system is recombinant HIV-1 10I/48V/54V/82A. Briefly: microbe, parasite or virus in culture. Format: cell-based. To be noted: Human immunodeficiency virus 1, read-out: Cell-based assay (MT-4) EC50/nM 48V54V82A.
Series [3] has as its system recombinant HIV-1 46I/47V/50V. Nature of the series: microbe, parasite or virus in culture. Type of series: cell-based. To be noted: Human immunodeficiency virus 1, read-out: Cell-based assay (MT-4) EC50/nM 46I50V.
For series [4], the system named is recombinant HIV-1 30N/50S/82I/88D. Briefly: microbe, parasite or virus in culture. Format: cell-based. As to conditions: Human immunodeficiency virus 1, read-out: Cell-based assay (MT-4) EC50/nM 30N82I88D.
In series [5] the test system is recombinant HIV-1 10I/48V/71V/82A/90M. Nature of the series: microbe, parasite or virus in culture. Format: cell-based. As to conditions: Human immunodeficiency virus 1, read-out: Cell-based assay (MT-4) EC50/nM 48V82A90M.
Series [6] deals with recombinant HIV-1 48V/54V/71V/82S. Nature of the series: microbe, parasite or virus in culture. Format: cell-based. As to conditions: Human immunodeficiency virus 1, read-out: Cell-based assay (MT-4) EC50/nM 48V54V82S.
Another series addresses 84V90M (Human immunodeficiency virus type 1 group M subtype B, UniProt P04585, I572V/L578M). Nature of the series: biochemical. Format: biochemical, HIV. To be noted: Enzymatic assay.
A further series in a line: in vitro. As to conditions: human, CC50 (μM).
Series [7] relates to Recombinant HIV-1 Strains With Resistance Mutations in the Protease Gene. Briefly: Cross-Resistance Profile Assay, whole panel. Format: cell-based. As to conditions: resistance = 5-fold and higher change in EC50 vs wild type; 11 mutant viruses.
The test system of series [8] is PBMC in human whole blood.

The values that follow come from patent publication US20070010489A1 (priority 2002, published 2007).

`CCOP(=O)(CCNC(=O)Oc1ccc(CC2C(O)C(O)C(Cc3ccc(OC)cc3)N(Cc3cccc(N)c3)C(=O)N2Cc2cccc(N)c2)cc1)OCC` (stereo not drawn) [OCH3, Ph-mNH2, OCONH(CH2)2PO3Et2]: the EC50 in series [1] (Human immunodeficiency virus 1, read-out: Cell-based assay (MT-4) EC50/nM 84V90M) was 2260 nM; in the series on WT HIV-1, 74 nM; in series [2], 262 nM; in [3], 184 nM; in [4], 77 nM; in series [5] it was 215 nM. In addition, the EC50 in [6] was 214 nM. Further, the concentration for half-maximal inhibition (IC50) – broadly, the concentration that inhibits the measured activity by half – at 84V90M was 116 nM.
As to `CCOP(=O)(COc1ccc(CC(NC(=O)OC2COC3OCCC23)C(O)CN(CC(C)C)S(=O)(=O)c2ccc(OC)cc2)cc1)OCC` (stereo not drawn) [drawing 1768 R1=OEt R2=OEt], in series [1] (fold difference in EC50 mutant vs wild type, class symbols), the I84V/L90M fold change entry was “− (≦3)”. The compound also displayed a CC50 in “in vitro” of 5 to 50 µM.
On to `CCOC(=O)C(C)NP(=O)(COc1ccc(CC(NC(=O)OC2COC3OCCC23)C(O)CN(CC(C)C)S(=O)(=O)c2ccc(OC)cc2)cc1)Oc1ccccc1` (stereo not drawn) [GS-16571], for which, in series [7], the “Total No. of Resistant Viruses” value amounted to 0. In series [8], the “Major Intracellular Metabolites” value is “X,GS-8373”.
